# Reference: patent US8952024B2, “Herbicidal pyrimidone derivatives” (E I du Pont de Nemours and Company, priority 2009, dated 2015)
# How the values were obtained:
# Assay type in all cases: in vivo
# [1] = system: barnyardgrass (Echinochloa crus-galli); assay: Test A pre-/postemergence plant response
# Procedure, shortened: (§1)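 Greenhouse trial, ~10 days. Soil (loam/sand) sprayed preemergence after seeding; emerged plants (1–2 leaf, 2–10 cm) sprayed postemergence in parallel. Response = visual injury vs untreated control, 0–100.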
# [2] = system: corn (Zea mays); assay: Test A pre-/postemergence plant response
# Procedure, shortened: as §1
# [3] = system: giant foxtail (Setaria faberii); assay: Test A pre-/postemergence plant response
# Procedure, shortened: as §1
# [4] = system: large crabgrass (Digitaria sanguinalis); assay: Test A pre-/postemergence plant response
# Procedure, shortened: as §1
# [5] = system: morningglory (Ipomoea spp.); assay: Test A pre-/postemergence plant response
# Procedure, shortened: as §1
# [6] = system: pigweed (Amaranthus retroflexus); assay: Test A pre-/postemergence plant response
# Procedure, shortened: as §1
# [7] = system: velvetleaf (Abutilon theophrasti); assay: Test A pre-/postemergence plant response
# Procedure, shortened: as §1
# [8] = system: wheat (Triticum aestivum); assay: Test A pre-/postemergence plant response
# Procedure, shortened: as §1
# [9] = system: barnyardgrass (Echinochloa crus-galli); assay: Test B flooded paddy test; settings: for Plant response rating, Flood, Barnyardgrass: 250 g ai/ha, flooded paddy test, visual rating on 0 to 100 scale (0 no effect, 100 complete control) after 13 to 15 days; for Plant response rating, Barnyardgrass: Flood (flooded paddy test), 13 to 15 days
# Procedure, shortened: (§2)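 Post-flood paddy application: compounds are introduced into water 3 cm deep over the soil, reaching plants at the 2-leaf stage. The water level is maintained, and after 13–15 days under greenhouse conditions, response is judged by eye relative to controls, where 100 means complete control.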
# [10] = system: ducksalad (Heteranthera limosa); assay: Test B flooded paddy test; settings: for Plant response rating, Flood, Ducksalad: 250 g ai/ha, flooded paddy test, visual rating on 0 to 100 scale (0 no effect, 100 complete control) after 13 to 15 days; for Plant response rating, Ducksalad: Flood (flooded paddy test), 13 to 15 days
# Procedure, shortened: as §2
# [11] = system: rice (Oryza sativa); assay: Test B flooded paddy test; settings: for Plant response rating, Flood, Rice: 250 g ai/ha, flooded paddy test, visual rating on 0 to 100 scale (0 no effect, 100 complete control) after 13 to 15 days; for Plant response rating, Rice: Flood (flooded paddy test), 13 to 15 days
# Procedure, shortened: as §2
# [12] = system: umbrella sedge (Cyperus difformis); assay: Test B flooded paddy test; settings: for Plant response rating, Flood, Sedge, Umbrella: 250 g ai/ha, flooded paddy test, visual rating on 0 to 100 scale (0 no effect, 100 complete control) after 13 to 15 days; for Plant response rating, Sedge, Umbrella: Flood (flooded paddy test), 13 to 15 days
# Procedure, shortened: as §2
# [13] = Postemergence, 125 g ai/ha, visual injury, 0 to 100 scale (0 no effect, 100 complete control), approx. ten days
# [14] = Postemergence, 500 g ai/ha, 0 to 100 scale, 0 = no effect, 100 = complete control, approx. ten days
# [15] = Preemergence, 125 g ai/ha, 0 to 100 scale, 0 = no effect, 100 = complete control
# [16] = Preemergence, 500 g ai/ha, visual injury, 0 to 100 scale (0 no effect, 100 complete control), approx. ten days
# [17] = 31 g ai/ha, scale of 0 to 100 where 0 is no effect and 100 is complete control
# [18] = 62 g ai/ha, scale 0 to 100, 0 is no effect, 100 is complete control
# [19] = 125 g ai/ha, scale 0 to 100, 0 is no effect, 100 is complete control
# [20] = Postemergence, 125 g ai/ha, 0 to 100 scale where 0 is no effect and 100 is complete control
# [21] = 62 g ai/ha, scale of 0 to 100 where 0 is no effect and 100 is complete control
# [22] = Postemergence, 500 g ai/ha, visual injury, 0 to 100 scale (0 no effect, 100 complete control), approx. ten days
# [23] = Preemergence, 500 g ai/ha, 0 to 100 scale, 0 = no effect, 100 = complete control
smiles,measurement,setting,value
O=C1CCCC([O-])=C1C(=O)c1cnc(-c2ccccc2)n(-c2ccc(Cl)cc2)c1=O.[K+] [Compound 13],Barnyardgrass plant response rating,[1]; [13],30
same,"Plant response rating, Barnyardgrass",[1]; [14],90
same,"Plant response rating, Barnyardgrass",[1]; [15],10
same,"Plant response rating, Barnyardgrass",[1]; [16],90
same,Corn plant response rating,[2]; [13],0
same,"Plant response rating, Corn",[2]; [14],50
same,"Plant response rating, Corn",[2]; [15],0
same,"Plant response rating, Corn",[2]; [16],20
same,"Foxtail, Giant plant response rating",[3]; [13],30
same,"Plant response rating, Foxtail, Giant",[3]; [14],80
same,"Plant response rating, Foxtail, Giant",[3]; [15],50
same,"Plant response rating, Foxtail, Giant",[3]; [16],90
same,"Crabgrass, Large plant response rating",[4]; [13],30
same,"Plant response rating, Crabgrass, Large",[4]; [14],90
same,"Plant response rating, Crabgrass, Large",[4]; [15],60
same,"Plant response rating, Crabgrass, Large",[4]; [16],100
same,Morningglory plant response rating,[5]; [13],0
same,"Plant response rating, Morningglory",[5]; [14],50
same,"Plant response rating, Morningglory",[5]; [15],0
same,"Plant response rating, Morningglory",[5]; [16],0
same,Pigweed plant response rating,[6]; [13],80
same,"Plant response rating, Pigweed",[6]; [14],100
same,"Plant response rating, Pigweed",[6]; [15],40
same,"Plant response rating, Pigweed",[6]; [16],100
same,Velvetleaf plant response rating,[7]; [13],100
same,"Plant response rating, Velvetleaf",[7]; [14],100
same,"Plant response rating, Velvetleaf",[7]; [15],80
same,"Plant response rating, Velvetleaf",[7]; [16],100
same,Wheat plant response rating,[8]; [13],10
same,"Plant response rating, Wheat",[8]; [14],60
same,"Plant response rating, Wheat",[8]; [15],0
same,"Plant response rating, Wheat",[8]; [16],40
same,"Plant response rating, Flood, Barnyardgrass",[9],35
same,"Plant response rating, Barnyardgrass",[9]; [17],0
same,"Plant response rating, Barnyardgrass",[9]; [18],0
same,"Plant response rating, Barnyardgrass",[9]; [19],0
same,"Plant response rating, Flood, Ducksalad",[10],95
same,"Plant response rating, Ducksalad",[10]; [17],0
same,"Plant response rating, Ducksalad",[10]; [18],0
same,"Plant response rating, Ducksalad",[10]; [19],0
same,"Plant response rating, Flood, Rice",[11],25
same,"Plant response rating, Rice",[11]; [17],0
same,"Plant response rating, Rice",[11]; [18],0
same,"Plant response rating, Rice",[11]; [19],0
same,"Plant response rating, Flood, Sedge, Umbrella",[12],85
same,"Plant response rating, Sedge, Umbrella",[12]; [17],0
same,"Plant response rating, Sedge, Umbrella",[12]; [18],0
same,"Plant response rating, Sedge, Umbrella",[12]; [19],60
COCCn1c(-c2ccn(C)n2)ncc(C(=O)C2=C(O)CCCC2=O)c1=O [Compound 136],"Plant response rating, Barnyardgrass",[1]; [20],30
same,"Plant response rating, Barnyardgrass",[1]; [14],80
same,"Plant response rating, Barnyardgrass",[1]; [15],0
same,"Plant response rating, Barnyardgrass",[1]; [16],60
same,"Plant response rating, Corn",[2]; [20],0
same,"Plant response rating, Corn",[2]; [14],0
same,"Plant response rating, Corn",[2]; [15],0
same,"Plant response rating, Corn",[2]; [16],0
same,"Plant response rating, Foxtail, Giant",[3]; [20],30
same,"Plant response rating, Foxtail, Giant",[3]; [14],50
same,"Plant response rating, Foxtail, Giant",[3]; [15],0
same,"Plant response rating, Foxtail, Giant",[3]; [16],0
same,"Plant response rating, Crabgrass, Large",[4]; [20],80
same,"Plant response rating, Crabgrass, Large",[4]; [14],90
same,"Plant response rating, Crabgrass, Large",[4]; [15],20
same,"Plant response rating, Crabgrass, Large",[4]; [16],60
same,"Plant response rating, Morningglory",[5]; [20],100
same,"Plant response rating, Morningglory",[5]; [14],100
same,"Plant response rating, Morningglory",[5]; [15],30
same,"Plant response rating, Morningglory",[5]; [16],60
same,"Plant response rating, Pigweed",[6]; [20],80
same,"Plant response rating, Pigweed",[6]; [14],100
same,"Plant response rating, Pigweed",[6]; [15],80
same,"Plant response rating, Pigweed",[6]; [16],100
same,"Plant response rating, Velvetleaf",[7]; [20],100
same,"Plant response rating, Velvetleaf",[7]; [14],100
same,"Plant response rating, Velvetleaf",[7]; [15],70
same,"Plant response rating, Velvetleaf",[7]; [16],100
same,"Plant response rating, Wheat",[8]; [20],0
same,"Plant response rating, Wheat",[8]; [14],0
same,"Plant response rating, Wheat",[8]; [15],0
same,"Plant response rating, Wheat",[8]; [16],0
same,"Plant response rating, Flood, Barnyardgrass",[9],25
same,"Plant response rating, Barnyardgrass",[9]; [21],20
same,"Plant response rating, Flood, Ducksalad",[10],75
same,"Plant response rating, Ducksalad",[10]; [21],55
same,"Plant response rating, Flood, Rice",[11],20
same,"Plant response rating, Rice",[11]; [21],15
same,"Plant response rating, Flood, Sedge, Umbrella",[12],50
same,"Plant response rating, Sedge, Umbrella",[12]; [21],45
CCCCn1c(-c2cccc(C)c2)ncc(C(=O)C2=C(O)C3CCC(C3)C2=O)c1=O (centres unmarked) [Compound 232],"Plant response rating, Barnyardgrass",[1]; [20],60
same,Barnyardgrass plant response rating,[1]; [22],90
same,"Plant response rating, Barnyardgrass",[1]; [15],0
same,"Plant response rating, Barnyardgrass",[1]; [23],50
same,"Plant response rating, Corn",[2]; [20],10
same,Corn plant response rating,[2]; [22],60
same,"Plant response rating, Corn",[2]; [15],0
same,"Plant response rating, Corn",[2]; [23],0
same,"Plant response rating, Foxtail, Giant",[3]; [20],60
same,"Foxtail, Giant plant response rating",[3]; [22],90
same,"Plant response rating, Foxtail, Giant",[3]; [15],0
same,"Plant response rating, Foxtail, Giant",[3]; [23],70
same,"Plant response rating, Crabgrass, Large",[4]; [20],20
same,"Crabgrass, Large plant response rating",[4]; [22],60
same,"Plant response rating, Crabgrass, Large",[4]; [15],10
same,"Plant response rating, Crabgrass, Large",[4]; [23],40
same,"Plant response rating, Morningglory",[5]; [20],100
same,Morningglory plant response rating,[5]; [22],100
same,"Plant response rating, Morningglory",[5]; [15],0
same,"Plant response rating, Morningglory",[5]; [23],40
same,"Plant response rating, Pigweed",[6]; [20],70
same,Pigweed plant response rating,[6]; [22],90
same,"Plant response rating, Pigweed",[6]; [15],0
same,"Plant response rating, Pigweed",[6]; [23],90
same,"Plant response rating, Velvetleaf",[7]; [20],70
same,Velvetleaf plant response rating,[7]; [22],80
same,"Plant response rating, Velvetleaf",[7]; [15],0
same,"Plant response rating, Velvetleaf",[7]; [23],60
same,"Plant response rating, Wheat",[8]; [20],20
same,Wheat plant response rating,[8]; [22],50
same,"Plant response rating, Wheat",[8]; [15],0
same,"Plant response rating, Wheat",[8]; [23],30
same,"Plant response rating, Flood, Barnyardgrass",[9],50
same,"Plant response rating, Barnyardgrass",[9]; [21],30
same,"Plant response rating, Flood, Ducksalad",[10],85
same,"Plant response rating, Ducksalad",[10]; [21],85
same,"Plant response rating, Flood, Rice",[11],0
same,"Plant response rating, Rice",[11]; [21],0
same,"Plant response rating, Flood, Sedge, Umbrella",[12],80
same,"Plant response rating, Sedge, Umbrella",[12]; [21],80
